# Laboratory results as given in US10179771B2 (GALAPAGOS NV, priority 2014, dated 2019).
# Molecular target: T1, Recombinant human JAK2 catalytic domain (Homo sapiens, UniProt O60674)
# T1 construct: Recombinant human JAK2 catalytic domain (amino acids 808-1132; catalog number PV4210); GST; purchased Invitrogen PV4210
# Assay: JAK2 inhibition assay (polyGT substrate / Ulight-JAK1 peptide assay)
# Type: biochemical
# Details: Comparative Compounds (Table VIII)
# Protocol: Recombinant human JAK2 catalytic domain (amino acids 808-1132; catalog number PV4210) was purchased from Invitrogen. 0.025 mU of JAK2 is incubated with […] polyGT substrate (Sigma catalog number P0275) in kinase reaction buffer (5 mM MOPS pH 7.5, 9 mM MgAc, 0.3 mM EDTA, 0.06% Brij and 0.6 mM DTT, 1 μM non-radioactive ATP, 0.25 μCi ^33P-gamma-ATP (GE Healthcare, catalog number AH9968) final concentrations) with or without 5 μL containing test compound or vehicle (DMSO, 1% final concentration), in a total volume of 25 μL, in a polypropylene 96-well plate (Greiner, V-bottom). After 90 min at 30° C., reactions are stopped by adding of 25 μL/well of 150 mM phosphoric acid. All of the terminated kinase reaction is transferred to prewashed (75 mM phosphoric acid) 96 well filter plates (Perkin Elmer catalog number 6005177) using a cell harvester (Perkin Elmer). Plates are washed 6 times with 300 μL per well of a 75 mM phosphoric acid solution and the bottom of the plates is sealed. 40 μL/well of Microscint-20 is added, the top of the plates is sealed and readout is performed using the Topcount (Perkin Elmer). Kinase activity is calculated by subtracting counts per min (cpm) obtained in the presence of a positive control inhibitor (10 μM staurosporine) from cpm obtained in the presence of vehicle. The ability of a test compound to inhibit this activity is determined as:
# [formula] • RFU test compound=RFU determined for sample with test compound present • RFU control=RFU determined for sample with positive control inhibitor • RFU vehicle=RFU determined in the presence of vehicle
# Dose dilution series are prepared for the compounds enabling the testing of dose-response effects in the JAK2 assay and the calculation of the IC50 for each compound. Each compound is routinely tested at concentration of 20 μM followed by a 1/3 serial dilution, 8 points (20 μM-6.67 μM-2.22 μM-740 nM-247 nM-82 nM-27 nM-9 nM) in a final concentration of 1% DMSO. When potency of compound series increased, more dilutions are prepared and/or the top concentration is lowered (e.g. 5 μM, 1 μM).
# Recombinant human JAK2 (catalytic domain, amino acids 866-1154; catalog number PV4210) was purchased from Invitrogen. 0.0125 mU of JAK2 was incubated with 25 nM Ulight-JAK1 (tyr1023) peptide (Perkin Elmer catalog number TRF0121) in kinase reaction buffer (25 mM HEPES pH7.0, 0.01% Triton X-100, 7.5 mM MgCl2, 2 mM DTT, 7.5 μM ATP) with or without 4 μL containing test compound or vehicle (DMSO, 1% final concentration), in a total volume of 20 μL, in a white 384 Opti plate (Perkin Elmer, catalog number 6007290). After 60 min at room temperature, reactions were stopped by adding 20 μL/well of detection mixture (1× detection buffer (Perkin Elmer, catalog number CR97-100C), 0.5 nM Europium-anti-phosphotyrosine (PT66) (Perkin Elmer, catalog number AD0068), 10 mM EDTA). Readout is performed using the Envision with excitation at 320 nm and measuring emission at 615 nm (Perkin Elmer). Kinase activity was calculated by subtracting relative fluorescence units (RFU) obtained in the presence of a positive control inhibitor (10 μM staurosporine) from RFU obtained in the presence of vehicle. The ability of a test compound to inhibit this activity was determined as: Percentage inhibition=((RFU determined for sample with test compound present−RFU determined for sample with positive control inhibitor) divided by (RFU determined in the presence of vehicle−RFU determined for sample with positive control inhibitor))*100.
# Dose dilution series are prepared for compound enabling the testing of dose-response effects in the JAK2 assay and the calculation of the IC50 for the compound. Each compound is routinely tested at concentration of 20 μM followed by a 1/5 serial dilution, 10 points in a final concentration of 1% DMSO. When potency of compound series increases, more dilutions are prepared and/or the top concentration are lowered (e.g. 5 μM, 1 μM). […]
# T1 sequence (O60674 808-1132): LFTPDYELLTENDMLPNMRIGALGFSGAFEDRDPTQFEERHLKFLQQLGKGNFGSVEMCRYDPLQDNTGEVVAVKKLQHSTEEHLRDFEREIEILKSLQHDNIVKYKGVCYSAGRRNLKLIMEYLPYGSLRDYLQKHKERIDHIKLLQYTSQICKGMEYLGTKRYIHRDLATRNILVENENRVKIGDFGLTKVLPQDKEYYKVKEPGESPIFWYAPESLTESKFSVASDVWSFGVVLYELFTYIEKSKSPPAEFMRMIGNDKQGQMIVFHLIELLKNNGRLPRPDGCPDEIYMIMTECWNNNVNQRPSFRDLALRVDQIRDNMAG
row,Structure (SMILES),IC50 [nM]
1,"CN(c1ccc2ncn(C)c2c1)c1ccc(C#N)cc1F [C, 3-fluoro-4-[methyl-(3-methylbenzimidazol-5-yl)amino]benzonitrile, reference compound]",> 500
2,"CN(c1cc2c(cn1)ncn2C)c1ccc(C#N)cc1F [D, reference compound]",> 500

# Same assay, conditions: Illustrative Compounds of the invention (Table VII)
row,Structure (SMILES),IC50 [nM]
1,"CCc1cc(C#N)cc(F)c1N(C)c1cc(NC(=O)[C@@H]2C[C@@H]2F)c2ncn(C)c2c1 (racemic) [Cpd 7, N-(6-((4-cyano-2-ethyl-6-fluorophenyl)(methyl)amino)-1-methyl-1H-benzo[d]imidazol-4-yl)-2-fluorocyclopropanecarboxamide (1S,2S)/(1R,2R) racemic mixture]",0.1 to 50
2,"CN(c1cc(NC(=O)[C@H]2C[C@H]2F)c2ncn(C)c2c1)c1ccc(S(C)(=O)=O)cc1F [Cpd 17, (1R,2R)-2-fluoro-N-[6-(2-fluoro-N-methyl-4-methylsulfonyl-anilino)-1-methyl-benzimidazol-4-yl]cyclopropanecarboxamide]",> 500
3,"CCc1cc(S(C)(=O)=O)ncc1N(C)c1cc(NC(=O)C2CC2)c2ncn(C)c2c1 [Cpd 18, N-[6-[(4-ethyl-6-methylsulfonyl-3-pyridyl)-methyl-amino]-1-methyl-benzimidazol-4-yl]cyclopropanecarboxamide]",0.1 to 50
4,"CCc1cc(C#N)cc(F)c1N(C)c1cc(NC(=O)OC)c2ncn(C)c2c1 [Cpd 5, methyl 6-((4-cyano-2-ethyl-6-fluorophenyl)(methyl)amino)-1-methyl-1H-benzo[d]imidazol-4-ylcarbamate]",0.1 to 50
5,"Cc1cc(C#N)ncc1Oc1cc(NC(=O)C2CC2)c2ncn(C)c2c1 [Cpd 23, N-[6-[(6-cyano-4-methyl-3-pyridyl)oxy]-1-methyl-benzimidazol-4-yl]cyclopropanecarboxamide]",50 to 100
6,"CN(c1cc(NC(=O)[C@H]2C[C@H]2F)c2ncn(C)c2c1)c1ccc(C#N)nc1F [Cpd 14, (1R,2R)-N-[6-[(6-cyano-2-fluoro-3-pyridyl)-methyl-amino]-1-methyl-benzimidazol-4-yl]-2-fluoro-cyclopropanecarboxamide]",50 to 100
7,"Cc1cc(S(C)(=O)=O)cc(F)c1N(C)c1cc(NC(=O)[C@H]2C[C@H]2F)c2ncn(C)c2c1 [Cpd 16, (1R,2R)-2-fluoro-N-[6-(2-fluoro-N,6-dimethyl-4-methylsulfonyl-anilino)-1-methyl-benzimidazol-4-yl]cyclopropanecarboxamide]",0.1 to 50
8,"Cc1cc(F)ncc1N(C)c1cc(NC(=O)[C@H]2C[C@H]2F)c2ncn(C)c2c1 [Cpd 12, (1R,2R)-2-fluoro-N-[6-[(6-fluoro-4-methyl-3-pyridyl)-methyl-amino]-1-methyl-benzimidazol-4-yl]cyclopropanecarboxamide]",50 to 100
9,"Cc1cnc(C#N)c(F)c1N(C)c1cc(NC(=O)[C@H]2C[C@H]2F)c2ncn(C)c2c1 [Cpd 22, (1R,2R)-N-[6-[(2-cyano-3-fluoro-5-methyl-4-pyridyl)-methyl-amino]-1-methyl-benzimidazol-4-yl]-2-fluoro-cyclopropanecarboxamide]",0.1 to 50
10,"Cc1cc(C#N)ncc1Oc1cc(NC(=O)NC(C)C)c2ncn(C)c2c1 [Cpd 38, 1-[6-[(6-cyano-4-methyl-3-pyridyl)oxy]-1-methyl-benzimidazol-4-yl]-3-isopropyl-urea]",100 to 500
11,"CCS(=O)(=O)c1ccc(N(C)c2cc(NC(=O)[C@H]3C[C@H]3F)c3ncn(C)c3c2)c(C)c1 [Cpd 27, (1R,2R)-N-[6-(4-ethylsulfonyl-N,2-dimethyl-anilino)-1-methyl-benzimidazol-4-yl]-2-fluoro-cyclopropanecarboxamide]",100 to 500
12,"Cc1cc(S(C)(=O)=O)ccc1N(C)c1cc(NC(=O)[C@H]2C[C@H]2F)c2ncn(C)c2c1 [Cpd 26, (1R,2R)-N-[6-(N,2-dimethyl-4-methylsulfonyl-anilino)-1-methyl-benzimidazol-4-yl]-2-fluoro-cyclopropanecarboxamide]",50 to 100
13,"CCc1cc(C#N)ncc1N(C)c1cc(NC(=O)OC)c2ncn(C)c2c1 [Cpd 4, methyl 6-((6-cyano-4-ethylpyridin-3-yl)(methyl)amino)-1-methyl-1H-benzo[d]imidazol-4-ylcarbamate]",0.1 to 50
14,"CCc1cc(C#N)cc(F)c1Nc1cc(NC(=O)C2CC2)c2ncn(C)c2c1 [Cpd 2, N-(6-(4-cyano-2-ethyl-6-fluorophenylamino)-1-methyl-1H-benzo[d]imidazol-4-yl)cyclopropanecarboxamide]",0.1 to 50
15,"CCc1cc(C#N)ncc1Oc1cc(NC(=O)[C@H]2C[C@H]2F)c2ncn(C)c2c1 [Cpd 6, (1R,2R)-N-[6-[(6-cyano-4-ethyl-3-pyridyl)oxy]-1-methyl-benzimidazol-4-yl]-2-fluoro-cyclopropanecarboxamide]",0.1 to 50
16,"CCc1cc(S(C)(=O)=O)ncc1Oc1cc(NC(=O)C2CC2)c2ncn(C)c2c1 [Cpd 29, N-[6-[(4-ethyl-6-methylsulfonyl-3-pyridyl)oxy]-1-methyl-benzimidazol-4-yl]cyclopropanecarboxamide]",100 to 500
17,"Cc1cc(C#N)ncc1Oc1cc(N(C)C)c2ncn(C)c2c1 [Cpd 35, 5-[7-(dimethylamino)-3-methyl-benzimidazol-5-yl]oxy-4-methyl-pyridine-2-carbonitrile]",> 500
18,"Cc1cc(C#N)ncc1Oc1cc(NC(=O)N2CCOCC2)c2ncn(C)c2c1 [Cpd 37, N-[6-[(6-cyano-4-methyl-3-pyridyl)oxy]-1-methyl-benzimidazol-4-yl]morpholine-4-carboxamide]",> 500
19,"Cc1cc(C#N)ncc1N(C)c1cc(NC(=O)[C@H]2C[C@H]2F)c2ncn(C)c2c1 [Cpd 9, (1R,2R)-N-(6-((6-cyano-4-methylpyridin-3-yl)(methyl)amino)-1-methyl-1H-benzo[d]imidazol-4-yl)-2-fluorocyclopropanecarboxamide]",0.1 to 50
20,"CN(c1cc(NC(=O)[C@H]2C[C@H]2F)c2ncn(C)c2c1)c1c(F)cc(C#N)cc1Cl [Cpd 11, (1R,2R)-N-[6-(2-chloro-4-cyano-6-fluoro-N-methyl-anilino)-1-methyl-benzimidazol-4-yl]-2-fluoro-cyclopropanecarboxamide]",0.1 to 50
21,"CNc1cc(Oc2cnc(C#N)cc2C)cc2c1ncn2C [Cpd 34, 4-methyl-5-[3-methyl-7-(methylamino)benzimidazol-5-yl]oxy-pyridine-2-carbonitrile]",> 500
22,"CCc1cc(C#N)ncc1N(C)c1cc(NC(=O)C2CC2)c2ncn(C)c2c1 [Cpd 1, N-(6-((6-cyano-4-ethylpyridin-3-yl)(methyl)amino)-1-methyl-1H-benzo[d]imidazol-4-yl)cyclopropanecarboxamide]",0.1 to 50
23,"CCc1cc(C#N)ncc1N(C)c1cc(NC(=O)[C@H]2C[C@H]2F)c2ncn(C)c2c1 [Cpd 8, (1R,2R)-N-(6-((6-cyano-4-ethylpyridin-3-yl)(methyl)amino)-1-methyl-1H-benzo[d]imidazol-4-yl)-2-fluorocyclopropanecarboxamide]",0.1 to 50
24,"Cc1cc(C#N)ncc1Oc1cc(N)c2ncn(C)c2c1 [Cpd 28, 5-(7-amino-3-methyl-benzimidazol-5-yl)oxy-4-methyl-pyridine-2-carbonitrile]",> 500
25,"CCc1cc(C(N)=O)ncc1N(C)c1cc(NC(=O)C2CC2)c2ncn(C)c2c1 [Cpd 24, 5-((4-(cyclopropanecarboxamido)-1-methyl-1H-benzo[d]imidazol-6-yl)(methyl)amino)-4-ethylpicolinamide]",0.1 to 50
